From patent publication US20070066674A1, “Tricyclic imidzopyridines for use as gastric secretion inhibitors” (Altana Pharma AG, priority 2003, published 2007)

Tested on: pentagastrin-stimulated acid secretion of the perfused rat stomach
Experiment: Secretion-inhibiting action on the perfused rat stomach
Format: in vivo
Conditions: dose 1 μmol/kg i.d., anesthetized CD rat, intraduodenal administration
Source text: In Table A which follows, the influence of the compounds of the formula 1 according to the invention and of their optical antipodes of the formula 2 on the pentagastrin-stimulated acid secretion of the perfused rat stomach after intraduodenal administration in vivo is shown.
The abdomen of anesthetized rats (CD rat, female, 200-250 g; 1.5 g/kg i.m. urethane) was opened after tracheotomy by a median upper abdominal incision and a PVC catheter was fixed transorally in the esophagus and another via the pylorus such that the ends of the tubes just projected into the gastric lumen. The catheter leading from the pylorus led outward into the right abdominal wall through a side opening.
After thorough rinsing (about 50-100 ml), warm (37° C.) physiological NaCl solution was continuously passed through the stomach (0.5 ml/min, pH 6.8-6.9; Braun-Unita I). The pH (pH meter 632, glass electrode EA 147; φ=5 mm, Metrohm) and, by titration with a freshly prepared 0.01 N NaOH solution to pH 7 (Dosimat 665 Metrohm), the secreted HCl were determined in the effluent in each case collected at an interval of 15 minutes.
The gastric secretion was stimulated by continuous infusion of […] (=1.65 ml/h) of i.v. pentagastrin (left femoral vein) about 30 min after the end of the operation (i.e. after determination of 2 preliminary fractions). The substances to be tested were administered intraduodenally in a 2.5 ml/kg liquid volume 60 min after the start of the continuous pentagastrin infusion. The body temperature of the animals was kept at a constant 37.8-38° C. by infrared irradiation and heat pads (automatic, stepless control by means of a rectal temperature sensor).

Row | Compound | Inhibition of acid secretion (%)
1 | Cc1nc2c3c(c(C(=O)N(C)C)cn2c1C)CC[C@@H](c1ccccc1)O3 [Example 2, (9S)-2,3-Dimethyl-9-phenyl-7H-8,9-dihydro-pyrano[2,3c]-imidazo[1,2-a]pyridine-6-carboxylic acid dimethylamide] | 100
2 | Cc1nc2c3c(c(C(=O)N(C)C)cn2c1C)CC[C@@H](c1ccc(F)cc1)O3 [Example 11, (9S)-9-(4-Fluorophenyl)-2,3-dimethyl-7H-8,9-dihydro-pyrano[2,3-c]-imidazo[1,2-a]pyridine-6-carboxylic acid dimethylamide] | 100
3 | Cc1ccccc1[C@@H]1CCc2c(C(=O)N(C)C)cn3c(C)c(C)nc3c2O1 [Example 9, (9S)-2,3-Dimethyl-9-(2-methylphenyl)-7H-8,9-dihydro-pyrano[2,3-c]-imidazo[1,2-a]pyridine-6-carboxylic acid dimethylamide] | 100
4 | Cc1nc2c3c(c(C(=O)N(C)C)cn2c1C)CC[C@@H](c1ccccc1)O3.O=C(O)C(O)C(O)C(=O)O [Example 1, (9S)-2,3-Dimethyl-9-phenyl-7H8,9dihydro-pyrano[2,3-c]-imidazo[1,2-a]pyridine-6-carboxylic acid dimethylamide (R,R)-tartrate] | 100
5 | CNC(=O)c1cn2c(C)c(C)nc2c2c1CC[C@@H](c1ccccc1)O2 [Example 7, (9S)-2,3-Dimethyl-9-phenyl-7H-8,9-dihydro-pyrano[2,3-c]-imidazo[1,2-a]pyridine-6-carboxylic acid methylamide] | 100
6 | Cc1nc2c3c(c(C(=O)N(C)C)cn2c1C)CC[C@@H](c1ccccc1F)O3 [Example 10, (9S)-9-(2-Fluorophenyl)-2,3-dimethyl-7H-8,9-dihydro-pyrano[2,3-c]-imidazo[1,2-a]pyridine-6-carboxylic acid dimethylamide] | 100
7 | Cc1ccccc1[C@H]1CCc2c(C(=O)N(C)C)cn3c(C)c(C)nc3c2O1 [I, (9R)-2,3-Dimethyl-9-(2-methylphenyl)-7H-8,9-dihydro-pyrano[2,3-c]-Imidazo[1,2-a]pyridine-6-carboxylic acid dimethylamide] | <50
8 | Cc1nc2c3c(c(C(=O)N(C)C)cn2c1C)CC[C@H](c1ccc(F)cc1)O3 [K, (9R)-9-(4-Fluorophenyl)-2,3dimethyl-7H-8,9-dihydro-pyrano[2,3-c]-imidazo[1,2-a]pyridine-6-carboxylic acid dimethylamide] | <40

Same assay, conditions: dose 2 μmol/kg i.d., anesthetized CD rat, intraduodenal administration

Row | Compound | Inhibition of acid secretion (%)
9 | Cc1nc2c3c(c(C(N)=O)cn2c1C)CC[C@@H](c1ccccc1)O3 [Example 8, (9S)-2,3-Dimethyl-9-phenyl-7H-8,9-dihydro-pyrano[2,3c]-imidazo[1,2-a]pyridine-6-carboxylic acid amide] | 100

Same assay, conditions: dose 3 μmol/kg i.d., anesthetized CD rat, intraduodenal administration

Row | Compound | Inhibition of acid secretion (%)
10 | Cc1nc2c3c(c(C(N)=O)cn2c1C)CC[C@H](c1ccccc1)O3 [H, (9R)-2,3-Dimethyl-9-phenyl-7H-8,9-dihydro-pyrano[2,3-c]-imidazo[1,2-a]pyridine-6-carboxylic acid amide] | <40
11 | CCc1c(C)nc2c3c(c(C(=O)N(C)C)cn12)CC[C@H](c1ccccc1)O3 [E, (9R)-3-Ethyl-2-methyl-9-phenyl-7H-8,9-dihydro-pyrano[2,3-c]-imidazo[1,2-a]pyridine-6-carboxylic acid dimethylamide] | <30
12 | Cc1nc2c3c(c(C(=O)N(C)C)cn2c1C)CC[C@@H](c1cccs1)O3 [Example 12, (9S)-2,3-Dimethyl-9-thiophen-2-yl-7H-8,9-dihydro-pyrano[2,3-c]-imidazo[1,2-a]pyridine-6-carboxylic acid dimethylamide] | 100
13 | Cc1nc2c3c(c(C(=O)N(C)C)cn2c1C)CC[C@H](c1ccccc1)O3 [B, (9R)-2,3-Dimethyl-9-phenyl-7H-8,9-dihydro-pyrano[2,3-c]-imidazo[1,2-a]pyridine-6-carboxylic acid dimethylamide] | <40
14 | Cc1nc2c3c(c(C(=O)N(C)C)cn2c1Br)CC[C@@H](c1ccccc1)O3 [Example 4, (9S)-3Bromo-2-methyl-9-phenyl-7H-8,9-dihydro-pyrano[2,3-c]-imidazo[1,2-a]pyridine-6-carboxylic acid dimethylamide] | >60
15 | Cc1nc2c3c(c(C(=O)N4CCCC4)cn2c1C)CC[C@@H](c1ccccc1)O3 [Example 6, (9S)-(2,3-Dimethyl-9-phenyl-7H-8,9-dihydro-pyrano[2,3c]-imidazo[1,2-a]pyridin-6-yl)-pyrrolidin-1-yl methanone] | 100
16 | Cc1nc2c3c(c(C(=O)N(C)C)cn2c1C)CC[C@H](c1ccccc1)O3.O=C(O)C(O)C(O)C(=O)O [A, (9R)2,3-Dimethyl-9-phenyl-7H-8,9-dihydro-pyrano[2,3-c]-imidazo[1,2-a]pyridine-6-carboxylic acid dimethylamide (S,S)-tartrate] | <40
17 | Cc1nc2c3c(c(C(=O)N(C)C)cn2c1Br)CC[C@H](c1ccccc1)O3 [D, (9R)-3-Bromo-2-methyl-9-phenyl-7H-8,9-dihydro-pyrano[2,3-c]-imidazo[1,2-a]pyridine-6-carboxylic acid dimethylamide] | <40
18 | Cc1nc2c3c(c(C(=O)N4CCCC4)cn2c1C)CC[C@H](c1ccccc1)O3 [F, (9R)-(2,3-Dimethyl-9-phenyl-7H-8,9-dihydro-pyrano[2,3-c]-imidazo[1,2-a]pyridin-6-yl)-pyrrolidin-1-yl methanone] | <40
19 | Cc1nc2c3c(c(C(=O)N(C)C)cn2c1C)CC[C@H](c1ccccc1F)O3 [J, (9R)-9-(2-Fluorophenyl)-2,3-dimethyl-7H-8,9-dihydro-pyrano[2,3c]-imidazo[1,2-a]pyridine-6-carboxylic acid dimethylamide] | <50
20 | COCc1cn2c(C)c(C)nc2c2c1CC[C@@H](c1ccccc1)O2 [Example 13, (9S)-6-Methoxymethyl-2,3-dimethyl-9-phenyl-7H-8,9-dihydro-pyrano[2,3-c]-imidazo[1,2-a]pyridine] | 100
21 | CCc1c(C)nc2c3c(c(C(=O)N(C)C)cn12)CC[C@@H](c1ccccc1)O3 [Example 5, (9S)-3-Ethyl-2-methyl-9-phenyl-7H-8,9-dihydro-pyrano[2,3c]-imidazo[1,2-a]pyridine-6-carboxylic acid dimethylamide] | >70
22 | CNC(=O)c1cn2c(C)c(C)nc2c2c1CC[C@H](c1ccccc1)O2 [G, (9R)-2,3-Dimethyl-9-phenyl-7H-8,9-dihydro-pyrano[2,3-c]-imidazo[1,2-a]pyridine-6-carboxylic acid methylamide] | <40

Same assay, conditions: dose 6 μmol/kg i.d., anesthetized CD rat, intraduodenal administration

Row | Compound | Inhibition of acid secretion (%)
23 | Cc1nc2c3c(c(C(=O)N(C)C)cn2c1CO)CC[C@H](c1ccccc1)O3 [C, (9R)-3-Hydroxymethyl-2-methyl-9-phenyl-7H-8,9-dihydro-pyrano[2,3c]-imidazo[1,2-a]pyridine-6-carboxylic acid dimethylamide] | <30
24 | Cc1nc2c3c(c(C(=O)N(C)C)cn2c1CO)CC[C@@H](c1ccccc1)O3 [Example 3, (9S)-3-Hydroxymethyl-2-methyl-9-phenyl-7H-8,9-dihydro-pyrano[2,3-c]-imidazo[1,2-a]pyridine-6-carboxylic acid dimethylamide] | >50
